Data on 2 molecules can be found in patent publication US20110065663A1, “ANTI-CANCER COMBINATION THERAPY” (Katholieke Universiteit Leuven, K.U. Leuven R&D, priority 2008, published 2011).

Assay [1] deals with M. hyorhinis TP. In words: TP activity in the medium of MCF-7/HYOR cell cultures (HPLC, conversion of nucleoside to free base). Format: biochemical, Mycoplasma hyorhinis. As to conditions: 200 μM substrate, 37° C. The protocol:
The TP activity of M. hyorhinis and the conversion of dThd, FdUrd, 5′DFUR and TFT to thymine, 5FU, 5FU or TF-thymine respectively were measured by high-pressure liquid chromatography (HPLC) analysis. MCF-7 and MCF-7/HYOR cells were seeded at a density of 20,000 cells/cm^2 in DMEM with 10% FBS. Four days later, the medium was collected and cleared by centrifugation at 1,400 rpm. For some experiments, the medium of MCF-7/HYOR cells was filtered using a 0.1 μm micro filter (Acrodisc syringe filter, PALL Corporation, East Hills, N.Y.) to remove the mycoplasmas from the medium. 600 μl of the medium was incubated with 200 μM of substrate (dThd, 5′DFUR, TFT or FdUrd) at 37° C. in the presence or absence of 10 μM TPi. At different time points (i.e. 0, 15, 30, 60, 120 minutes and 16 hours), 100 μl aliquots were withdrawn, transferred to Eppendorf tubes and heated at 95° C. for 3 min. Next, the samples were rapidly cooled on ice, exposed for 20 min to 200 μl ice-cold methanol and cleared by centrifugation at 15,000 rpm for 15 minutes. As a positive control, an enzyme activity assay with E. coli TP (Sigma) was performed. For this reaction, 0.025 U of TP were incubated with 200 μM of substrate in TP-buffer (10 mM Tris-HCl, pH 7.6, 1 mM EDTA, 2 mM potassium phosphate and 150 mM NaCl) in a total volume of 600 μl. Aliquots of 100 μl were withdrawn from the reaction mixture at several time points and treated as described above. The nucleosides were separated from their nucleobases on a reversed-phase RP-8 column (Merck, Darmstadt, Germany) and quantified by HPLC analysis (Aliance 2690, Waters, Milford, Mass.). The separation was performed by a linear gradient from 100% buffer B (50 mM NaH2PO4 and 5 mM heptane sulfonic acid, pH 3.2), to 20% buffer B and 80% acetonitrile. […] UV-based detection of all nucleosides was performed at 267 nm.

Assay [2] has as its system MCF-7 cells. In words: Tumor cell proliferation assay, uninfected MCF-7 cells. The conditions noted are these: for Ratio (1)/(2) MCF-7: IC50 in the absence of TPi to IC50 in the presence of TPi; for IC50: uninfected MCF-7. In kind it is cell-based, human.
Assay [3] relates to MCF-7/HYOR cells. Kind of assay: Tumor cell proliferation assay, M. hyorhinis-infected MCF-7 cells. Format: cell-based, human. As to conditions: for Ratio (1)/(2) MCF-7/HYOR: IC50 in the absence of TPi to IC50 in the presence of TPi. The protocol: Mycoplasma hyorhinis (ATCC 17981) was obtained from the American Type Culture Collection (ATCC, Manassas, Va.). The freeze-dried bacteria were reconstituted by adding 1 ml of DMEM. […] The co-culture of MCF-7 cells and M. hyorhinis was maintained under the same conditions as the uninfected MCF-7 cells. […] The cells were incubated for another 4 days, trypsinized and counted by a Coulter counter (Analis, Suarlée, Belgium).

The structures appear in SMILES notation. Like-named read-outs stand apart in the source and are kept apart here.

In the case of `O=c1[nH]c(=O)n([C@H]2C[C@H](O)[C@@H](CO)O2)cc1C(F)(F)F` [TFT, 5-trifluorothymidine], the figures for the “Percent conversion of nucleoside to the free pyrimidine base in MCF-7/HYOR medium” value in assay [1] (2 hours) and in assay [1] (16 hours) were 8% and 55%, respectively. The “Ratio (1)/(2) MCF-7” value in assay [2] is 1.8. Also, the IC50 amounted to 390 ± 120 nM in assay [2] (no TPi, 4 days, read-out: IC50 MCF-7 As such); 210 ± 110 nM in assay [2] (with 10 μM TPi, read-out: IC50 MCF-7 +TPi (10 μM)); 6000 ± 3190 nM in assay [3] (M. hyorhinis-infected MCF-7, no TPi, no plasmocin, read-out: IC50 MCF-7/HYOR As such); 180 ± 70 nM in assay [3] (M. hyorhinis-infected MCF-7, with 10 μM TPi, read-out: IC50 MCF-7/HYOR +TPi (10 μM)); 450 ± 90 nM in assay [3] (plasmocin 25 μg/ml, 1 day pretreatment, read-out: IC50 MCF-7/HYOR +plasmocin (25 μg/ml) 1 day prior to addition of test compounds); 190 ± 60 nM in assay [3] (plasmocin 25 μg/ml, 3 days pretreatment, read-out: IC50 MCF-7/HYOR +plasmocin (25 μg/ml) 3 days prior to addition of test compounds). In assay [3], the “Ratio (1)/(2) MCF-7/HYOR” value is 33.
For the molecule `O=c1[nH]c(=O)n([C@H]2C[C@H](O)[C@@H](CO)O2)cc1F` [FdUrd, 5-fluoro-2′-deoxyuridine], the figures for the “Percent conversion of nucleoside to the free pyrimidine base in MCF-7/HYOR medium” value in assay [1] (2 hours) and in assay [1] (16 hours) were 43% and 77%, respectively. Besides, the IC50 in assay [2] (Homo sapiens, MCF7, 96 h, no TPi, 4 days, read-out: IC50 MCF-7 As such) was found to be 3 ± 2 nM; in assay [2] (Homo sapiens, MCF7, with 10 μM TPi, read-out: IC50 MCF-7 +TPi (10 μM)), 3 ± 2 nM; in assay [3] (Homo sapiens, MCF7, read-out: IC50 MCF-7/HYOR +TPi (10 μM)), 3 ± 1 nM; in assay [3] (Homo sapiens, MCF7, read-out: IC50 MCF-7/HYOR As such) it was 420 ± 180 nM; in assay [3] (Homo sapiens, MCF7, plasmocin 25 μg/ml, 1 day pretreatment, read-out: IC50 MCF-7/HYOR +plasmocin (25 μg/ml) 1 day prior to addition of test compounds), 18 ± 2.2 nM; in assay [3] (Homo sapiens, MCF7, plasmocin 25 μg/ml, 3 days pretreatment, read-out: IC50 MCF-7/HYOR +plasmocin (25 μg/ml) 3 days prior to addition of test compounds), 3 ± 1 nM. Also, in assay [2], the “Ratio (1)/(2) MCF-7” value came out at 1.0. Further, in assay [3], the “Ratio (1)/(2) MCF-7/HYOR” value was 140.
